Results on 17 molecules are retold here after patent US20160145257A1, “SUBSTITUTED XANTHINES AND METHODS OF USE THEREOF” (Hydra Biosciences, Inc., priority 2013, published 2016).

This test deals with T1, hTRPC5 (Homo sapiens, UniProt Q9UL62).
T1 construct: expressed in transfected cells; host or cells: HEK293 TREx cells with inducible TRPC5 expression
T1 sequence (Q9UL62 1-973): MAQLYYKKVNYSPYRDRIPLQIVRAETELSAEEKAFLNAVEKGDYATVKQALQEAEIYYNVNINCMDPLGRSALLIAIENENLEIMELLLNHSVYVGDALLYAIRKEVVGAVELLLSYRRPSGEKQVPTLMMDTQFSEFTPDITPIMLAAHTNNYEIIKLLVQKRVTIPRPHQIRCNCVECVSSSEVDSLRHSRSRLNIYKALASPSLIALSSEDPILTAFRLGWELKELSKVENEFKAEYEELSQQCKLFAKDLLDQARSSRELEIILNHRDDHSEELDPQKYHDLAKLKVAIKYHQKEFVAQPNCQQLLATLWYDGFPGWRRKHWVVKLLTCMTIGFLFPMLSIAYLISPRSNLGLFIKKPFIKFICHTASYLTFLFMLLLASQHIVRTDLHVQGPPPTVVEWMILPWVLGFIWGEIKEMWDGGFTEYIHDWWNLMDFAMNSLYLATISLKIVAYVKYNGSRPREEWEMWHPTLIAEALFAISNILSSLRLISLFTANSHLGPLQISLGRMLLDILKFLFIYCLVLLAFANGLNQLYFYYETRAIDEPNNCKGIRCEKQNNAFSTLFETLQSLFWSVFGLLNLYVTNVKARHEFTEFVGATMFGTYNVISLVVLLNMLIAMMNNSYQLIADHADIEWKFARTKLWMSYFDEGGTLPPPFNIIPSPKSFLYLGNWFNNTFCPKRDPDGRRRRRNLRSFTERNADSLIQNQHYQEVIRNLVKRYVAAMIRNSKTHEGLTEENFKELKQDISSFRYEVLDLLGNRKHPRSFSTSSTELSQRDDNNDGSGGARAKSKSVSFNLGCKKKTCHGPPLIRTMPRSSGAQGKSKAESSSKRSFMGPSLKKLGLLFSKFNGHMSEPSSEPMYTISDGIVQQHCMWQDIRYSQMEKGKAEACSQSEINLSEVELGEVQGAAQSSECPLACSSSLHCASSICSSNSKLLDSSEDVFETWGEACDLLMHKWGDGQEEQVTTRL
Kind of test: Whole-cell patch clamp, block of LaCl3-activated TRPC5 inward current. In kind it is cell-based. As to conditions: TRPC5-expressing HEK293 TREx cells, 80 μM LaCl3, inward current, IC50 estimated from 5 μM and 500 nM, read-out: hTRPC5 Patch La3+ Inwd (nM) (All Batches). The essentials:
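Whole-cell recordings in induced TRPC5-expressing HEK293 TREx cells, holding −40 mV, 400 ms ramps −120 to +100 mV every 5 s; current activated by 80 μM external LaCl3 and 1,400 nM pipette free Ca2+ (pH 7.2 internal, 7.4 external). Inward block at −80 mV, with LaCl3 present; IC50 estimated from testing at 5 μM and 500 nM.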
Take `CC(Cc1nc2c(c(=O)n(C)c(=O)n2C)n1Cc1cccc(Br)c1)C(=O)O` (centres unmarked) [Compound 117, 3-(7-(3-Bromobenzyl)-1,3-dimethyl-2,6-dioxo-2,3,6,7-tetrahydro-1H-purin-8-yl)-2-methylpropanoic acid]: the IC50 is 2000 to 10000 nM. Next, `CCCOCCc1nc2c(c(=O)n(C)c(=O)n2C)n1Cc1ccc(C#N)cc1` [Compound 118]: 2000 to 10000 nM; `CCCOCCc1nc2c(c(=O)n(C)c(=O)n2C)n1Cc1cccc(C#N)c1` [Compound 119]: 2000 to 10000 nM; `CCCC(=O)CCOc1nc2c(c(=O)n(C)c(=O)n2C)n1Cc1cccc(Br)c1` [Compound 120]: 2000 to 10000 nM. With `CCCOCCc1nc2c(c(=O)n(C)c(=O)n2C)n1Cc1cccc(C(N)=O)c1` [Compound 121], the IC50 was 2000 to 10000 nM.

Take `CCCC(O)C(C)(C)Sc1nc2c(c(=O)n(C)c(=O)n2C)n1Cc1cccc(Br)c1` (centres unmarked) [Compound 122, 7-(3-bromobenzyl)-8-(3-hydroxy-2-methylhexan-2-ylthio)-1,3-dimethyl-1H-purine-2,6(3H,7H)-dione]: the IC50 is under 100 nM. Next, `C=C(CC(=O)OCC)c1nc2c(c(=O)n(C)c(=O)n2C)n1Cc1cccc(Br)c1` [Compound 123, ethyl 3-(7-(3-bromobenzyl)-1,3-dimethyl-2,6-dioxo-2,3,6,7-tetrahydro-1H-purin-8-yl)but-3-enoate]: 1000 to 2000 nM; `Cn1c(=O)c2c(nc(Cc3cccc(CO)c3)n2Cc2cccc(Br)c2)n(C)c1=O` [Compound 124]: 2000 to 10000 nM.

For the molecule `CCOCc1cccc(C(CC)c2nc3c(c(=O)n(C)c(=O)n3C)n2Cc2cccc(Br)c2)c1` (centres unmarked) [Compound 125, 7-(3-bromobenzyl)-8-(1-(3-(ethoxymethyl)phenyl)propyl)-1,3-dimethyl-1H-purine-2,6(3H,7H)-dione], the IC50 is 500 to 1000 nM. With `CCOCc1cccc(Oc2nc3c(c(=O)n(C)c(=O)n3C)n2Cc2cccc(Br)c2)c1` [Compound 126, 7-(3-bromobenzyl)-8-(3-(ethoxymethyl)phenoxy)-1,3-dimethyl-1H-purine-2,6(3H,7H)-dione] the figure was 100 to 500 nM. Take `CN(C)C(=O)c1cccc(Oc2nc3c(c(=O)n(C)c(=O)n3C)n2Cc2cccc(Br)c2)c1` [Compound 127]: the IC50 is 2000 to 10000 nM.

Regarding `CCCOCCc1nc2c(c(=O)n(C)c(=O)n2C)n1Cc1cccc(-c2ccccc2)c1` [Compound 128, 7-(biphenyl-3-ylmethyl)-1,3-dimethyl-8-(2-propoxyethyl)-1H-purine-2,6(3H,7H)-dione], the IC50 is 100 to 500 nM. Consider `CCCOCCc1nc2c(c(=O)n(C)c(=O)n2C)n1Cc1ccc(-c2ccccc2)cc1` [Compound 129, 7-(biphenyl-4-ylmethyl)-1,3-dimethyl-8-(2-propoxyethyl)-1H-purine-2,6(3H,7H)-dione], for which the IC50 was 500 to 1000 nM. Take `CCc1coc(CSc2nc3c(c(=O)n(C)c(=O)n3C)n2Cc2cccc(OC)c2)n1` [Compound 130, 8-((4-ethyloxazol-2-yl)methylthio)-7-(3-methoxybenzyl)-1,3-dimethyl-1H-purine-2,6(3H,7H)-dione]: the IC50 was 500 to 1000 nM. Turning to `CCc1coc(CSc2nc3c(c(=O)n(C)c(=O)n3C)n2Cc2ccc(OC)cc2)n1` [Compound 131, 8-((4-ethyloxazol-2-yl)methylthio)-7-(4-methoxybenzyl)-1,3-dimethyl-1H-purine-2,6(3H,7H)-dione], the IC50 was 500 to 1000 nM. With `CCc1coc(CSc2nc3c(c(=O)n(C)c(=O)n3C)n2Cc2cccc(C)c2)n1` [Compound 132, 8-((4-ethyloxazol-2-yl)methylthio)-1,3-dimethyl-7-(3-methylbenzyl)-1H-purine-2,6(3H,7H)-dione] the figure was 100 to 500 nM; with `CCc1coc(CSc2nc3c(c(=O)n(C)c(=O)n3C)n2Cc2ccc(C)cc2)n1` [Compound 133, 8-((4-ethyloxazol-2-yl)methylthio)-1,3-dimethyl-7-(4-methylbenzyl)-1H-purine-2,6(3H,7H)-dione], 100 to 500 nM.
